Experimental data published in patent US6603023B2 (priority 1996, dated 2003).
Like-named read-outs stand apart in the source and are kept apart here. Marks after values point to notes of the source that are not given here.

Legend:
[1] = test system: CCRF-CEM human T-cell acute lymphoblastic leukemia cell line; experiment: XTT cytotoxicity (cell growth inhibition), CCRF-CEM; settings: Homo sapiens, CCRF-CEM
In short: (§1)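 XTT microculture tetrazolium readout, duplicate wells: 72 h compound incubation, then PMS-XTT (0.025 mM PMS) added, 4 h 37 °C, A450 and A630 measured. Suspension cells in RPMI-1640/10% FBS, 5×10^4 cells/mL; resistant sublines maintained with selecting drug.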

CCRF-CEM/VM1 = experiment: cells; format: cell-based, human; settings: Homo sapiens, CCRF-CEM
In short: as §1

DC-3F/ADII = experiment: SRB cytotoxicity, DC-3F/ADII; format: cell-based, hamster; settings: Mesocricetus auratus, DC3F
In short: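 Cell protein content measured by sulforhodamine B staining after trichloroacetic acid fixation, read at 570 nm; duplicate runs of six to seven concentrations fitted by median-effect analysis. Lines are actinomycin D-resistant DC-3F hamster lung sublines (ADII, ADX), kept under selecting drug in RPMI 1640-10% FBS.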

[2] = test system: MDR human mammary adenocarcinoma MCF-7/Adr xenograft; experiment: in vivo
Description: DMSO was used as a vehicle for epothilones. Each mouse received ≦40 μL DMSO in all experiments.
Athymic nude mice (nu/nu) were used for MX-1 and MCF-7/Adr human mammary carcinoma xenografts. Mice were obtained from Taconic Laboratory Animals and Service (Germantown, N.Y.: outbred, Swiss background).

CCRF-CEM = experiment: Drug combination analysis (combination index, XTT, 72 h); format: cell-based; settings: Homo sapiens, median-effect parameter, read-out: Dm (IC50)
CCRF-CEM/Taxol® = experiment: CCRF-CEM/Taxol xenograft, i.v. 6 h infusion; format: in vivo, nude mice; settings: CCRF/Taxol Leukemia; dEpoB 30 mg/kg Q2D x 6, Taxol 15 mg/kg Q2D x 6
From the text: Treatment on days 6, 8, 10, 12 and 14.
Treatment on days 19, 21, 23, 25, 27, 39, 41, 43, 45 and 47.

[3] = MCF-7/Adr Breast, dEpoB 30 mg/kg Q2D x 5, Taxol 24 mg/kg Q2D x 5
[4] = Taxol 24 mg/kg, 6 hr i.v. infusion Q2D x 5 (day 8-16)
[5] = dEpo B 30, Taxol 15 mg/kg, 6 hr i.v. infusion Q2D x 5 (day 8-16)
[6] = high doses: Taxol 12, Adriamycin 3, Camptothecin 3.0 mg/kg i.p. day 8,10,12,14,16
[7] = male, athymic nude (nu/nu), outbred, Swiss background, mouse, in vivo

**Q.** For `CC(=O)O[C@H]1C(=O)[C@@]2(C)[C@H]([C@H](OC(=O)c3ccccc3)[C@]3(O)C[C@H](OC(=O)[C@H](O)[C@@H](NC(=O)c4ccccc4)c4ccccc4)C(C)=C1C3(C)C)[C@]1(OC(C)=O)CO[C@@H]1C[C@@H]2O` [Taxol ®, paclitaxel], which IC50 [1] is on record?
**A.** 2.1 nM

**Q.** What about the IC50 ([1]; 72 h, Table 1A, XTT) of the same compound?
**A.** 2.1 nM

**Q.** What about the IC50 ([1]; Table 1, XTT) of the same compound?
**A.** 2 nM

**Q.** What about the IC50 ([1]; Table 2) of the same compound?
**A.** 2.3 nM

**Q.** What about the IC50 ([1]; Table 5, single determinations) of the same compound?
**A.** 2.1 nM

**Q.** And the IC50 ([1]; read-out: IC50 (A), Table 2A, parent cell line)?
**A.** 2.3 nM

**Q.** And the IC50 (CCRF-CEM/VM1; 72 h, Table 1A, XTT)?
**A.** 6.6 nM

**Q.** What about the IC50 (CCRF-CEM/VM1; Table 1, XTT) of the same compound?
**A.** 2 nM

**Q.** And the IC50 (CCRF-CEM/VM1; Table 2, CCR-CEM/VM-1)?
**A.** 3 nM

**Q.** And the IC50 (CCRF-CEM/VM1; Table 2A, Topo II gene mutated cell line)?
**A.** 3 nM

**Q.** What about the IC50 (CCRF-CEM/VM1; Table 5, single determinations) of the same compound?
**A.** 6.6 nM

**Q.** And the IC50 (DC-3F/ADII)?
**A.** 3200 nM

**Q.** What about the “Lowest Average Tumor Size (T/C)” value [2, 3] of the same compound?
**A.** 0.71 T/C

**Q.** And the “Tumor Disappearance” value [2, 3]?
**A.** 0

**Q.** What about the tumor size reduction ([2]; Taxol 6 mg/kg i.p. Q2Dx5, day 17) of the same compound?
**A.** 100%

**Q.** And the “Average Body Weight (change), Day 14” value [2, 4]?
**A.** -4.8 g

**Q.** And the “Average Body Weight (change), Day 16” value [2, 4]?
**A.** -5.3 g

**Q.** And the “Average Body Weight (change), Day 18” value [2, 4]?
**A.** -6.0 g

**Q.** What about the “Average Tumor Size (T/C), Day 14” value [2, 4] of the same compound?
**A.** 0.73 T/C

**Q.** And the “Average Tumor Size (T/C), Day 16” value [2, 4]?
**A.** 0.71* T/C

**Q.** And the “Average Tumor Size (T/C), Day 18” value [2, 4]?
**A.** 0.73* T/C

**Q.** And the “Average Tumor Size (T/C), Day 14” value [2, 5]?
**A.** 0.81 T/C

**Q.** And the “Average Tumor Size (T/C), Day 16” value [2, 5]?
**A.** 0.89 T/C

**Q.** And the “Average Tumor Size (T/C), Day 18” value [2, 5]?
**A.** 0.76 T/C

**Q.** And the “Average Tumor Volume (T/C), Day 11” value [2, 6]?
**A.** 0.50 T/C

**Q.** And the “Average Tumor Volume (T/C), Day 13” value [2, 6]?
**A.** 0.51 T/C

**Q.** What about the “Average Tumor Volume (T/C), Day 15” value [2, 6] of the same compound?
**A.** 0.32 T/C

**Q.** What about the “Average Tumor Volume (T/C), Day 17” value [2, 6] of the same compound?
**A.** 0.40 T/C

**Q.** And the Toxicity Death [2, 7]?
**A.** 0/4

**Q.** And the lethality [2, 7]?
**A.** 3/7

**Q.** What about the tumor growth suppression ([2]; paclitaxel 5 mg/kg (so in the source)) of the same compound?
**A.** slight growth suppression

**Q.** And the IC50 (CCRF-CEM)?
**A.** 1.09 nM

**Q.** And the “Lowest Average Tumor Size (T/C)” value (CCRF-CEM/Taxol®)?
**A.** 1.09 T/C

**Q.** What about the “Tumor Disappearance” value (CCRF-CEM/Taxol®) of the same compound?
**A.** 0
